# According to patent publication US20250120975A1, “INTEGRIN INHIBITORS FOR TREATMENT OF PRIMARY SCLEROSING CHOLANGITIS” (Pliant Therapeutics, Inc., priority 2023, published 2025):
# Entries after “also recorded” stand apart in the source; their conditions may differ.
# Experiments:
# [1] = system: BALB/c.Mdr2−/− mouse model of biliary fibrosis; assay: Assessment of body and organ weights (liver, spleen) and colon length; format: in vivo; conditions: 6 weeks
# Source text: The tissue source is BALBc.Mdr2-/−male mice that were 6 weeks old. The Mdr2(abcb4)−/− mouse model of sclerosing cholangitis has been previously described and is a model of spontaneously progressive hepatic fibrosis in mice with deletion of the biliary phospholipid flippase on fibrosis-susceptible background (Mdr2(abcb4)^−/−. BALB/c mouse). See N. Ikenaga, et al. (2015) Am J Pathol. 185 (2): 325-334, the entire contents of which are hereby incorporated by reference in their entirety.
# (S)-4-((2-methoxyethyl)(4-(5,6,7,8-tetrahydro-1,8-naphthyridin-2-yl)butyl)amino)-2-(quinazolin-4-ylamino)butanoic acid (or PBS) was dosed once daily orally at 100 mg/kg, 300 mg/kg or 1000 mg/kg (see Table B-2) starting at 6 weeks after birth of the subject and continuing for 6 weeks. All animals were euthanized and necropsied at the end of week 12.
# Body, liver and spleen weights and colon length were determined at necropsy. Liver and plasma were snap frozen/preserved in liquid nitrogen. Two pieces of liver were fixed in formalin for histological assessment.
# αVβ6 integrin = αVβ6 integrin (Homo sapiens, UniProt P06756+P18564); assay: Inhibition of αVβ6 integrin (IC50); format: binding; conditions: read-out: 50% inhibitory concentration [IC50] αVβ6
# Sequence of αVβ6 integrin (P06756 31-1048): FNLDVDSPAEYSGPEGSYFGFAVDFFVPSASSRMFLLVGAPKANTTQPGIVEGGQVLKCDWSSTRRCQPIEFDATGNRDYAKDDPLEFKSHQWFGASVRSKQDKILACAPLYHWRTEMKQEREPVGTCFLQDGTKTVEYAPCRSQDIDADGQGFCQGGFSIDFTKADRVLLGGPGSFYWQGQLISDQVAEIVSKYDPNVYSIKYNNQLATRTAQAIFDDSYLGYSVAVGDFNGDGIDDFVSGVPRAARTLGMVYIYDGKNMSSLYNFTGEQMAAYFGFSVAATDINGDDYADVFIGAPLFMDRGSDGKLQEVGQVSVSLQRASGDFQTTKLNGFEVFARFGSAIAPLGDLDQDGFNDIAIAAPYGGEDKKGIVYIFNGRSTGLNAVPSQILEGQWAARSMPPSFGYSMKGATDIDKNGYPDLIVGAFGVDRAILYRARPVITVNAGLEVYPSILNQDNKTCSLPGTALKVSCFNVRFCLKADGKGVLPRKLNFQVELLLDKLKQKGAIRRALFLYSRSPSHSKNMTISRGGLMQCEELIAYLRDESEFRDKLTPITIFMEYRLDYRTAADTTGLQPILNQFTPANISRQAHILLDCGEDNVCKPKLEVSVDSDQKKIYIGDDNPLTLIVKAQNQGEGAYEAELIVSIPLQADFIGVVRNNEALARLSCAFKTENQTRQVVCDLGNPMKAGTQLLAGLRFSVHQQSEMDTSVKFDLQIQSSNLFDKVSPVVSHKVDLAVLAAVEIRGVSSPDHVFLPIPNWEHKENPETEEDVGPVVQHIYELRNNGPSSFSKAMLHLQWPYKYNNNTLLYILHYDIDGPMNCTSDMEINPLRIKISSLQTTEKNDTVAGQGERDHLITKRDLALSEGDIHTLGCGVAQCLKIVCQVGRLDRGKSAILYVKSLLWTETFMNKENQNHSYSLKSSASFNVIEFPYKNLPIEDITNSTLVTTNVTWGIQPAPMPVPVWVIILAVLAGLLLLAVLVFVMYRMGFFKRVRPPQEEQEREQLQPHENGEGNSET
# Sequence of αVβ6 integrin (P18564 22-788): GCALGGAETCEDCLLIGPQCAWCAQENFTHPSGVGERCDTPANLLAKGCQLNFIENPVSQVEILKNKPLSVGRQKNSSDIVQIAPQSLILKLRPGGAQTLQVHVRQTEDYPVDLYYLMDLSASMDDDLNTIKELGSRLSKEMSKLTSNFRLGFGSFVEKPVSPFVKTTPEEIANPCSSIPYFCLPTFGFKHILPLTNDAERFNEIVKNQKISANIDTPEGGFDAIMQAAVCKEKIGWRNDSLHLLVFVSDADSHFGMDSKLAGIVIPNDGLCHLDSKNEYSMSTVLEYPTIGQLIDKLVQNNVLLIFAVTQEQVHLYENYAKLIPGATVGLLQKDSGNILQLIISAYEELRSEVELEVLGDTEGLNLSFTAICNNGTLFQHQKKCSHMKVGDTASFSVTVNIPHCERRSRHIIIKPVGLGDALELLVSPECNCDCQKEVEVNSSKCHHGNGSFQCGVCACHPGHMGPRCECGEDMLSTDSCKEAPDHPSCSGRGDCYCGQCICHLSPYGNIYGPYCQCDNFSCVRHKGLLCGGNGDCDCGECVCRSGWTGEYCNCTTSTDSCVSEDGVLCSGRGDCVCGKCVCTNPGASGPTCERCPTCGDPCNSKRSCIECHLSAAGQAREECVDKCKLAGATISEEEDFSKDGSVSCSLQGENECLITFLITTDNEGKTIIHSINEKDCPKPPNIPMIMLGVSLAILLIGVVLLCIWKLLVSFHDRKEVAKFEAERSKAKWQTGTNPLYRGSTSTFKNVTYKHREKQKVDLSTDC
# [2] = system: subjects with PSC and suspected liver fibrosis; assay: Phase 2a INTEGRIS-PSC: Enhanced Liver Fibrosis (ELF) score and components; format: in vivo, human
# Experimental: The Enhanced Liver Fibrosis (ELF) score is a set of markers for extracellular matrix (ECM) activity. Three serum markers are measured, tissue inhibitor of metalloproteinases 1 (TIMP-1), amino-terminal propeptide of type III procollagen (PIIINP) and hyaluronic acid (HA). The measurements are combined in an algorithm to provide a score that correlates well with the degree of liver fibrosis (Sharma, C. et al., Journal of Gastroenterology and Hepatology, 36:1788-1802(2021), incorporated by reference herein in its entirety). A change in ELF score greater than or equal to 0.19 is indicative of clinical progression within two years (Muir A. J. et al., Hepatology, 2019 February; 69 (2): 684-698, incorporated by reference herein in its entirety). An ELF greater than or equal to 7.7 is considered moderate to severe fibrosis (Vesterhus M. et al., Hepatology, 2015 July; 62(1):188-97; incorporated by reference herein in its entirety).
# In Parts 1 and 2, plasma, serum, and urine biomarker samples were obtained at predetermined times as indicated in the Schedule of Events (see Table B-4). In Part 3, plasma and serum biomarker samples were obtained at predetermined times as indicated in the Schedule of Events (see Table B-5 and Table B-6). These samples were used to measure specific proteins, nucleotides and/or metabolites that were elevated in subjects with fibrosis, and/or pharmacodynamic markers that could change with inhibition of integrins αVβ6 and αVβ1. The samples were also used to perform exploratory investigations using metabolomic or proteomic methods for use in future studies in subjects with fibrotic diseases.
# Absolute and relative changes from Baseline in liver fibrosis biomarkers (including PRO-C3 and ELF) and in ALP are presented in numerical and graphical forms by treatment and dose utilizing data from the timepoints specified in the Schedule of Events. Changes from Baseline to Week 12(Parts 1 and 2) and Week 24 (Part 3) in magnetic resonance (MR)-based liver imaging are also evaluated, as well as changes in PROs.
# [3] = system: subjects with PSC and concomitant IBD; assay: Phase 2a INTEGRIS-PSC: IBD symptoms (partial Mayo Score); format: in vivo, human
# Source text: Questionnaires to assess PROs will be administered at Baseline, Weeks 4 and 12(Parts 1, 2, and 3) and at Week 24 (Part 3 only), and will include the Chronic Liver Disease Questionnaire (CLDQ), the Itch Numeric Rating Scale (NRS), and the Partial Mayo Score (PMS), when available for use. See A. N. Naegeli, et al. (2015) International Journal of Dermatology 54 (6): 715-722 and Z. M. Younossi, et al. (1999) Gut 45:295-300, the entire contents of which are hereby incorporated by reference in their entirety.
compound,measurement,setting,value
"COCCN(CCCCc1ccc2c(n1)NCCC2)CC[C@H](Nc1ncnc2ccccc12)C(=O)O [Bexotegrast, (S)-4-((2-methoxyethyl)(4-(5,6,7,8-tetrahydro-1,8-naphthyridin-2-yl)butyl)amino)-2-(quinazolin-4-ylamino)butanoic acid]",liver weight relative to vehicle control,[1]; 1000 mg/kg/day,decreased
same,colon length,"[1]; 100, 300, 1000 mg/kg",did not change
same,spleen weights,"[1]; all doses (100, 300, 1000 mg/kg)",no changes
same,IC50,αVβ6 integrin,5.7 nM
same,"ELF score components TIMP-1, HA, PIIINP vs placebo","[2]; 160 mg, Week 12, Example B-3",achieved statistical significance
same,"ELF score, difference to placebo","[2]; 160 mg, Week 12, Example B-3",statistically significant difference
same,reduction of the mean change in ELF score relative to placebo,"[2]; 160 mg, Week 12, Example B-3",84%
same,ELF score relative to placebo,"[2]; 320 mg, Week 12, Example B-4",reduction
same,"ELF score, overall population","[2]; 320 mg, Week 12 to Week 24, Example B-5",no increase; also recorded: stable ELF score
same,"ELF score, patients at high risk (baseline ELF >9.8)","[2]; 320 mg, Week 24, compared to an increase in the placebo group, Example B-5",reduction in ELF score
same,"ELF score components (TIMP-1, PIIINP, HA) compared to placebo","[2]; 40, 80, 160, 320 mg, Week 12, Example B-4",generally reduced
same,ELF score relative to placebo,"[2]; all doses (40, 80, 160 mg), Week 12, Example B-3",reduced
same,ELF scores relative to placebo,"[2]; all doses (40, 80, 160, 320 mg), Week 12, Example B-4",reduced
same,IBD symptoms in patients with IBD,"[3]; 40, 80, 160 mg, 12 weeks, Example B-3",no clinically-relevant changes
same,IBD symptoms as measured by partial Mayo Score,"[3]; patients with concomitant IBD, Example B-4",no change
